Data from patent US6407099B1, “Arylpiperidinopropanol and arylpiperazinopropanol derivatives and pharmaceuticals containing the same” (Suntory Limited, priority 1997, dated 2002).

Experiments:
[1] = test system: DBA/2N type mice; experiment: Audiogenic seizure suppressing effect; assay type: in vivo; conditions: compound 10 mg/kg, i.p., audio stimulus after 20 minutes, seizure score; for inhibition in vivo at 10 mg/kg: Mus musculus, ip, 20 min, read-out: Antiseizure effect (suppression rate %); for Antiseizure effect (suppression rate %): 10 mg/kg
Protocol: Audiogenic Seizure Suppressing Effect
The audiogenic seizure suppressing effect of the compounds was evaluated by the method of Sarro et al. [G. B. De Sarro et al., Br. J. Pharmacol., 93, 247 (1988)]. That is, the compound dissolved in 10% 2-hydroxypropyl-β-cyclodextrin was administered intraperitoneally to DBA/2N type mice (male, 3 weeks old). After 20 minutes, a supersonic washer was used to apply audio stimulus of at least 90 dB for 1 minute. The wild running (WR), clonic seizures (clonus), tonic seizures (tonus), and the respiratory arrest (RA) were observed. The seizure suppressing effect was evaluated from the rate of suppression of the average value of the seizure score found as 0=no response, 1=WR, 2=clonus, 3=tonus, and 4=RA.

[2] = Acute toxicity test; conditions: male, mouse, in vivo, iv, ddY mice, death rate up to 24 hours after administration
Protocol: A pharmaceutical preparation was administered intravenously to ddY mice (male, 6 weeks old). The 50% lethal dosage LD50 of the acute toxicity was calculated by an ordinary method from the death rate up to 24 hours after administration.

[3] = test system: T-type Ca^2+ channel; experiment: T-type calcium channel inhibitory effect (whole-cell patch clamp, hippocampal CA1 pyramidal cells); assay type: cell-based, Wistar rats; conditions: rat hippocampal CA1 pyramidal cells; peak current after 1 minute of application
Protocol: T-Type Calcium Channel Inhibitory Effect
The hippocampal CA1 pyramidal cells were isolated from Wistar rats (female, 1 week old) in according to the method reported by Takahashi et al. [K. Takahashi et al.; J. Pharmacol. Exp. Ther., 256, 169 (1991)] and the T-type calcium current was measured under conditions of a fixed membrane potential using the whole-cell configuration of the patch clamp technique. The effects of the compounds were evaluated from the rate of suppression of the peak current after 1 minute of application using the concentration clamp method.

[4] = molecular target: T1, Dopamine D2 receptor (Rattus norvegicus, UniProt P61169); experiment: Dopamine D2 receptor blocking action ([^3H] raclopride, striatum membrane fraction); assay type: binding, Wistar male rats; conditions: 1.0 nM [^3H] raclopride, 25° C., 1 hour
T1 construct: membrane fraction prepared from the striatum of Wistar male rats; from tissue; host or cells: rat striatum membrane fraction
Protocol: Dopamine D2 Receptor Blocking Action
57 μl of the membrane fraction prepared from the striatum of Wistar male rats (6 weeks old) was incubated together with the compound and 1.0 nM [^3H] raclopride in a buffer at 25° C. for 1 hour. A GF/C glass filter (0.1% polyethylene imine treatment) was used for B/F separation. A beta plate was used for measurement of the radioactivity to evaluate the effect of the compound.

[5] = test system: lipid peroxidation; experiment: Lipid peroxidation suppressing effect (brain membrane preparation, malonaldehyde and 4-hydroxyalkenals); assay type: biochemical, Wistar rats; conditions: rat brain membrane preparation, 37° C., 30 minutes
Protocol: Lipid Peroxidation Suppressing Effect
The whole brains of Wistar rats (10 weeks old, male) were excised and homogenized in the 10 times volumes of 50 mM phosphate-buffered solution (pH=7.4) (hereinafter referred to as PBS). The centrifuged supernatent was further diluted fourfold and the result was used as the brain membrane preparation. The membrane preparation was incubated in the presence of vehicle (0.5% DMSO) or compound at 37° C. for 30 minutes and an automatic oxidation reaction promoted. The reaction was stopped by 35% perchloric acid, then the total of the main decomposition products of the peroxidized lipids present in the centrifuged supernatent, that is, malonaldehyde and 4-hydroxyalkenals, was measured using a BIOXYTECH®/LPO-586™ peroxidized lipid colorimetric assay kit (OXIS International, Inc.) and used as an indicator of the lipid peroxidation.

[6] = test system: Sodium channel; experiment: Inhibitory effect of veratrizine-induced sodium channel activity (synaptozome membrane potential, Rhodamine 6G); assay type: biochemical, Wistar rats; conditions: compound 0.1 μM; rat brain synaptozomes, veratrizine-induced depolarization
From the text: Inhibitory Effect of Veratrizine-induced Sodium Channel Activity

T1 sequence (P61169 whole entry): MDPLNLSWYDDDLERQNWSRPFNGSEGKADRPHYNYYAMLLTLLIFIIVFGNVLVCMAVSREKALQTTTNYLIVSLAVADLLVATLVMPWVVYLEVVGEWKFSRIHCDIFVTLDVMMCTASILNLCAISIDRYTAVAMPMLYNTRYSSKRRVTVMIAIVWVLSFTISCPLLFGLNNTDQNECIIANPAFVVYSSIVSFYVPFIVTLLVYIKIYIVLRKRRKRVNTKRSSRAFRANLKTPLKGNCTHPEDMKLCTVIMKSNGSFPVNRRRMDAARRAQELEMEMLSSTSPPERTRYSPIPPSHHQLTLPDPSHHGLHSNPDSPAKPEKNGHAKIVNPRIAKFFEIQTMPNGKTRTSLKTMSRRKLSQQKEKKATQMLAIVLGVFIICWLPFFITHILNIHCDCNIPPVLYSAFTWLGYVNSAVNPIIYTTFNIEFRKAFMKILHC

Question: For `Cc1cc(OC[C@@H](O)CN2CCC(c3ccc(Cc4ccc(F)cc4)cc3)CC2)c(C)cc1N` [Compound 33, (2S)-1-[(4-amino-2,5-dimethyl)phenoxy]-3-[4-(4-(4-fluorophenyl)methylphenyl)piperidin-1-yl]-2-propanol], which inhibition in vivo at 10 mg/kg [1] is on record?
Answer: 78%

Question: Which inhibition in vivo at 10 mg/kg [1] does the source give for `Cc1cc(OC[C@@H](O)CN2CCC(c3ccc(Oc4ccccc4)cc3)CC2)c(C)c(C)c1N` [Compound 26, (2S)-1-[(4-amino-2,3,5-trimethyl)phenoxy]-3-[4-(4-phenoxyphenyl)piperidin-1-yl]-2-propanol] here?
Answer: 74%

Question: What about the LD50 at 24 h [2] of the same compound?
Answer: 41 mg/kg

Question: What about the IC50 [3] of the same compound?
Answer: 3.4 µM

Question: And the IC50 [4]?
Answer: 5.6 µM

Question: With `Cc1cc(OC[C@@H](O)CN2CCC(c3ccc(Cc4ccc(F)cc4)cc3)CC2)c(C)c(C)c1N` [Compound 27, (2S)-1-[(4-amino-2,3,5-trimethyl)phenoxy]-3-[4-(4-(4-fluorophenyl)methylphenyl)piperidin-1-yl]-2-propanol] as the compound, how does the inhibition in vivo at 10 mg/kg [1] read?
Answer: 55%

Question: What about the IC50 [5] of the same compound?
Answer: 0.46 µM

Question: And the “Anti-veratrizine effect (inhibiting rate %)” value [6]?
Answer: 32.1%

Question: What about the IC50 [4] of the same compound?
Answer: 6.3 µM

Question: With `COc1ccc(NC[C@@H](O)CN2CCC(c3ccc(Oc4ccccc4)cc3)CC2)c(C)c1` [Compound 56, (2R)-1-[4-(4-phenoxyphenyl)piperidin-1-yl]-3-[(4-methoxy-2-methyl)phenylamino]-2-propanol] as the compound, how does the “Antiseizure effect (suppression rate %)” value [1] read?
Answer: 64%

Question: Which inhibition in vivo at 10 mg/kg [1] does the source give for `COc1ccc(N)cc1OC[C@@H](O)CN1CCN(c2ccc(Cc3ccc(F)cc3)cc2)CC1` [Compound 44, (2S)-1-[(5-amino-2-methoxy)phenoxy]-3-[4-(4-(4-fluorophenyl)methylphenyl)piperazin-1-yl]-2-propanol] here?
Answer: 80%

Question: With `Cc1cc(C)c(OC[C@@H](O)CN2CCC(c3ccc(Cc4ccc(F)cc4)cc3)CC2)c(N)c1` [Compound 47, (2S)-1-[(2-amino-4,6-dimethyl)phenoxy]-3-[4-(4-(4-fluorophenyl)methylphenyl)piperidin-1-yl]-2-propanol] as the compound, how does the inhibition in vivo at 10 mg/kg [1] read?
Answer: 56%

Question: Which inhibition in vivo at 10 mg/kg [1] does the source give for `Cc1cc(N)c(C)c(C)c1OC[C@@H](O)CN1CCN(c2ccc(Cc3ccc(F)cc3)cc2)CC1` [Compound 40, (2S)-1-[(4-amino-2,3,6-trimethyl)phenoxy]-3-[4-(4-(4-fluorophenyl)methylphenyl)piperazin-1-yl]-2-propanol] here?
Answer: 80%

Question: And the LD50 at 24 h [2]?
Answer: 49.1 mg/kg

Question: What about the IC50 [4] of the same compound?
Answer: 12 µM

Question: Which “Antiseizure effect (suppression rate %)” value [1] does the source give for `COc1ccc(NCC(O)CN2CCC(c3ccc(Oc4ccccc4)cc3)CC2)c(C)c1` (stereo not drawn) [Compound 53, 1-[4-(4-phenoxyphenyl)piperidin-1-yl]-3-[(4-methoxy-2-methyl)phenylamino]-2-propanol] here?
Answer: 46%

Question: What about the IC50 [3] of the same compound?
Answer: 2.2 µM

Question: And the IC50 [4]?
Answer: 11 µM

Question: With `Cc1cc(C)c(OC[C@@H](O)CN2CCC(c3ccc(Oc4ccccc4)cc3)CC2)c(N)c1` [Compound 46, (2S)-1-[(2-amino-4,6-dimethyl)phenoxy]-3-[4-(4-phenoxyphenyl)piperidin-1-yl]-2-propanol] as the compound, how does the inhibition in vivo at 10 mg/kg [1] read?
Answer: 88%

Question: With `Cc1cc(C)c(OC[C@@H](O)CN2CCN(c3ccc(Cc4ccc(F)cc4)cc3)CC2)c(N)c1` [Compound 48, (2S)-1-[(2-amino-4,6-dimethyl)phenoxy]-3-[4-(4-(4-fluorophenyl)methylphenyl)piperazin-1-yl]-2-propanol] as the compound, how does the inhibition in vivo at 10 mg/kg [1] read?
Answer: 70%

Question: Which inhibition in vivo at 10 mg/kg [1] does the source give for `Cc1c(C)c(NCC(O)CN2CCC(c3ccc(Oc4ccccc4)cc3)CC2)c(C)c(C)c1N` (stereo not drawn) [Compound 58, 3-[(4-amino-2,3,5,6-tetramethyl)phenylamino]-1-[4-(4-phenoxyphenyl)piperidin-1-yl]-2-propanol] here?
Answer: 68%

Question: Which inhibition in vivo at 10 mg/kg [1] does the source give for `COc1ccc(N)cc1OC[C@@H](O)CN1CCC(c2ccc(Oc3ccc(F)cc3)cc2)CC1` [Compound 42, (2S)-1-[(5-amino-2-methoxy)phenoxy]-3-[4-(4-(4-fluorophenoxy)phenyl)piperidin-1-yl]-2-propanol] here?
Answer: 50%

Question: What about the “Anti-veratrizine effect (inhibiting rate %)” value [6] of the same compound?
Answer: 10.3%

Question: Which results are given for `Cc1cc(OC[C@@H](O)CN2CCN(c3ccc(Cc4ccc(F)cc4)cc3)CC2)c(C)c(C)c1N` [Compound 28, (2S)-1-[(4-amino-2,3,5-trimethyl)phenoxy]-3-[4-(4-(4-fluorophenyl)methylphenyl)piperazin-1-yl]-2-propanol]?
Answer: inhibition in vivo at 10 mg/kg [1]: 76%; LD50 at 24 h [2]: 47.3 mg/kg; IC50 [3]: 3 µM; IC50 [4]: 12 µM

Question: Which inhibition in vivo at 10 mg/kg [1] does the source give for `Cc1cc(OC[C@@H](O)CN2CCC(c3ccc(Oc4ccccc4)cc3)CC2)c(C)cc1N` [Compound 32] here?
Answer: 70%

Question: What does the source list for `COc1cc(Cl)c(N)cc1OC[C@@H](O)CN1CCC(c2ccc(Oc3ccccc3)cc2)CC1` [Compound 49, (2S)-1-[(5-amino-4-chloro-2-methoxy)phenoxy]-3-[4-(4-phenoxyphenyl)piperidin-1-yl]-2-propanol]?
Answer: inhibition in vivo at 10 mg/kg [1]: 42%; Anti-veratrizine effect (inhibiting rate %) [6]: 15.1%

Question: Which inhibition in vivo at 10 mg/kg [1] does the source give for `Cc1c(N)ccc(OC[C@@H](O)CN2CCC(c3ccc(Cc4ccc(F)cc4)cc3)CC2)c1C` [Compound 36, (2S)-1-[(4-amino-2,3-dimethyl)phenoxy]-3-[4-(4-(4-fluorophenyl)methylphenyl)piperidin-1-yl]-2-propanol] here?
Answer: 68%

Question: Which results are given for `COc1ccc(N)cc1OC[C@@H](O)CN1CCC(c2ccc(Cc3ccc(F)cc3)cc2)CC1` [Compound 43, (2S)-1-[(5-amino-2-methoxy)phenoxy]-3-[4-(4-(4-fluorophenyl)methylphenyl)piperidin-1-yl]-2-propanol]?
Answer: inhibition in vivo at 10 mg/kg [1]: 30%; Anti-veratrizine effect (inhibiting rate %) [6]: 21%

Question: Which inhibition in vivo at 10 mg/kg [1] does the source give for `Nc1ccc(OC[C@@H](O)CN2CCC(c3ccc(Oc4ccccc4)cc3)CC2)cc1` [Compound 25, (2S)-1-(4-aminophenoxy)-3-[4-(4-phenoxyphenyl)piperidin-1-yl]-2-propanol] here?
Answer: 58%

Question: What about the “Anti-veratrizine effect (inhibiting rate %)” value [6] of the same compound?
Answer: 21%

Question: For `Cc1cc(N)c(C)c(C)c1OC[C@@H](O)CN1CCC(c2ccc(Oc3ccccc3)cc2)CC1` [Compound 38, (2S)-1-[(4-amino-2,3,6-trimethyl)phenoxy]-3-[4-(4-phenoxyphenyl)piperidin-1-yl]-2-propanol], which inhibition in vivo at 10 mg/kg [1] is on record?
Answer: 92%

Question: With `COc1ccc(NCC(O)CN2CCC(c3ccc(Cc4ccc(F)cc4)cc3)CC2)c(C)c1` (stereo not drawn) [Compound 54] as the compound, how does the inhibition in vivo at 10 mg/kg [1] read?
Answer: 58%

Question: With `COc1ccc(N)cc1OC[C@@H](O)CN1CCC(c2ccc(OC3CCCC3)cc2)CC1` [Compound 45] as the compound, how does the inhibition in vivo at 10 mg/kg [1] read?
Answer: 44%

Question: For `Cc1cc(OC[C@@H](O)CN2CCC(c3ccc(OC4CCCC4)cc3)CC2)c(C)c(C)c1N` [Compound 31, (2S)-1-[(4-amino-2,3,5-trimethyl)phenoxy]-3-[4-(4-cyclopentyloxyphenyl)piperidin-1-yl]-2-propanol], which inhibition in vivo at 10 mg/kg [1] is on record?
Answer: 74%

Question: For `Cc1cc(OC[C@@H](O)CN2CCC(O)(c3ccc(-c4ccccc4)c(F)c3)CC2)c(C)c(C)c1N` [Compound 30], which inhibition in vivo at 10 mg/kg [1] is on record?
Answer: 44%

Question: For `COc1ccc(NCC(O)CN2CCN(c3ccc(Cc4ccc(F)cc4)cc3)CC2)c(C)c1` (stereo not drawn) [Compound 55], which inhibition in vivo at 10 mg/kg [1] is on record?
Answer: 70%

Question: With `Cc1cc(OC[C@@H](O)CN2CCN(c3ccc(Cc4ccc(F)cc4)cc3)CC2)c(C)cc1N` [Compound 34] as the compound, how does the inhibition in vivo at 10 mg/kg [1] read?
Answer: 74%

Question: With `Nc1cc(Cl)c(OC[C@@H](O)CN2CCC(c3ccc(Oc4ccccc4)cc3)CC2)c(Cl)c1` [Compound 51, (2S)-1-[(4-amino-2,6-dichloro)phenoxy]-3-[4-(4-phenoxyphenyl)piperidin-1-yl]-2-propanol] as the compound, how does the inhibition in vivo at 10 mg/kg [1] read?
Answer: 74%

Question: With `Cc1c(N)ccc(OC[C@@H](O)CN2CCC(c3ccc(Oc4ccccc4)cc3)CC2)c1C` [Compound 35, (2S)-1-[(4-amino-2,3-dimethyl)phenoxy]-3-[4-(4-phenoxyphenyl)piperidin-1-yl]-2-propanol] as the compound, how does the inhibition in vivo at 10 mg/kg [1] read?
Answer: 74%

Question: With `COc1ccc(NC[C@H](O)CN2CCC(c3ccc(Oc4ccccc4)cc3)CC2)c(C)c1` [Compound 57] as the compound, how does the “Antiseizure effect (suppression rate %)” value [1] read?
Answer: 68%
